From ChEMBL document CHEMBL5614424, “Natural Product-Inspired Discovery of Naphthoquinone-Furo-Piperidine Derivatives as Novel STAT3 Inhibitors for the Treatment of Triple-Negative Breast Cancer” (J Med Chem, 2024)

What was measured:
MDA-MB-231 [1] = test: Antiproliferative activity against human MDA-MB-231 cells assessed as cell viability incubated for 48 hrs measured after additional incubation with MTT; type: functional, cell-based; details: MDA-MB-231, 48 h
MDA-MB-468 [2] = test: Antiproliferative activity against human MDA-MB-468 cells assessed as cell viability incubated for 48 hrs measured after additional incubation with MTT; type: functional, cell-based; details: MDA-MB-468, 48 h
[3] = Antiproliferative activity against human MCF-10A cells assessed as cell viability incubated for 48 hrs measured after additional incubation with MTT; type: toxicity, cell-based
L02 = test: Antiproliferative activity against human L02 cells assessed as cell viability incubated for 48 hrs measured after additional incubation with MTT; type: functional, cell-based; details: L02, 48 h
MDA-MB-231 [4] = test: Induction of apoptosis in human MDA-MB-231 cells assessed as early apoptotic cells at 2.5 uM measured after 24 hrs incubation by the annexin V/propidium iodide (PI) double staining assay (reference value: 2.46%); type: functional
MDA-MB-231 [5] = test: Induction of apoptosis in human MDA-MB-231 cells assessed as late apoptotic cells at 2.5 uM measured after 24 hrs incubation by the annexin V/propidium iodide (PI) double staining assay (reference value: 2.69%); type: functional
MDA-MB-231 [6] = test: Induction of apoptosis in human MDA-MB-231 cells assessed as early apoptotic cells at 5 uM measured after 24 hrs incubation by the annexin V/propidium iodide (PI) double staining assay (reference value: 2.46%); type: functional
MDA-MB-231 [7] = test: Induction of apoptosis in human MDA-MB-231 cells assessed as late apoptotic cells at 5 uM measured after 24 hrs incubation by the annexin V/propidium iodide (PI) double staining assay (reference value: 2.69%); type: functional
MDA-MB-468 [8] = test: Induction of apoptosis in human MDA-MB-468 cells assessed as early apoptotic cells at 2.5 uM measured after 24 hrs incubation by the annexin V/propidium iodide (PI) double staining assay (reference value: 3.98%); type: functional
MDA-MB-468 [9] = test: Induction of apoptosis in human MDA-MB-468 cells assessed as late apoptotic cells at 2.5 uM measured after 24 hrs incubation by the annexin V/propidium iodide (PI) double staining assay (reference value: 3.64%); type: functional
MDA-MB-468 [10] = test: Induction of apoptosis in human MDA-MB-468 cells assessed as early apoptotic cells at 5 uM measured after 24 hrs incubation by the annexin V/propidium iodide (PI) double staining assay (reference value: 3.98%); type: functional
MDA-MB-468 [11] = test: Induction of apoptosis in human MDA-MB-468 cells assessed as late apoptotic cells at 5 uM measured after 24 hrs incubation by the annexin V/propidium iodide (PI) double staining assay (reference value: 3.64%); type: functional
MDA-MB-231 [12] = test: Induction of apoptosis in human MDA-MB-231 cells assessed as early apoptotic cells at 5 uM measured after 24 hrs incubation by the annexin V/propidium iodide (PI) double staining assay (reference value: 2.37%); type: functional
MDA-MB-231 [13] = test: Induction of apoptosis in human MDA-MB-231 cells assessed as late apoptotic cells at 5 uM measured after 24 hrs incubation by the annexin V/propidium iodide (PI) double staining assay (reference value: 3.08%); type: functional
MDA-MB-231 [14] = test: Induction of apoptosis in human MDA-MB-231 cells assessed as early apoptotic cells pretreated with Z-VAD-FMK at 5 uM measured after 24 hrs incubation by the annexin V/propidium iodide (PI) double staining assay (reference value: 2.37%); type: functional
MDA-MB-231 [15] = test: Induction of apoptosis in human MDA-MB-231 cells assessed as late apoptotic cells pretreated with Z-VAD-FMK at 5 uM measured after 24 hrs incubation by the annexin V/propidium iodide (PI) double staining assay (reference value: 3.08%); type: functional
MDA-MB-468 [16] = test: Induction of apoptosis in human MDA-MB-468 cells assessed as early apoptotic cells at 5 uM measured after 24 hrs incubation by the annexin V/propidium iodide (PI) double staining assay (reference value: 2.36%); type: functional
MDA-MB-468 [17] = test: Induction of apoptosis in human MDA-MB-468 cells assessed as late apoptotic cells at 5 uM measured after 24 hrs incubation by the annexin V/propidium iodide (PI) double staining assay (reference value: 4.33%); type: functional
MDA-MB-468 [18] = test: Induction of apoptosis in human MDA-MB-468 cells assessed as early apoptotic cells pretreated with Z-VAD-FMK at 5 uM measured after 24 hrs incubation by the annexin V/propidium iodide (PI) double staining assay (reference value: 2.36%); type: functional
MDA-MB-468 [19] = test: Induction of apoptosis in human MDA-MB-468 cells assessed as late apoptotic cells pretreated with Z-VAD-FMK at 5 uM measured after 24 hrs incubation by the annexin V/propidium iodide (PI) double staining assay (reference value: 4.33%); type: functional
[20] = Half life in male rat at 10 mg/kg, po measured upto 24 hrs by LC/MS/MS analysis; type: ADME, organism-based; details: in vivo
[21] = Half life in male rat at 10 mg/kg, ip measured upto 24 hrs by LC/MS/MS analysis; type: ADME, organism-based; details: in vivo
[22] = Half life in male rat at 5 mg/kg, iv measured upto 24 hrs by LC/MS/MS analysis; type: ADME, organism-based; details: in vivo
[23] = AUC(0 to t) in male rat at 10 mg/kg, po measured upto 24 hrs by LC/MS/MS analysis; type: ADME, organism-based; details: in vivo
[24] = AUC(0 to t) in male rat at 10 mg/kg, ip measured upto 24 hrs by LC/MS/MS analysis; type: ADME, organism-based; details: in vivo
[25] = AUC(0 to t) in male rat at 5 mg/kg, iv measured upto 24 hrs by LC/MS/MS analysis; type: ADME, organism-based; details: in vivo
[26] = AUC(0 to infinity) in male rat at 10 mg/kg, po measured upto 24 hrs by LC/MS/MS analysis; type: ADME, organism-based; details: in vivo
[27] = AUC(0 to infinity) in male rat at 10 mg/kg, ip measured upto 24 hrs by LC/MS/MS analysis; type: ADME, organism-based; details: in vivo
[28] = AUC(0 to infinity) in male rat at 5 mg/kg, iv measured upto 24 hrs by LC/MS/MS analysis; type: ADME, organism-based; details: in vivo
[29] = Cmax in male rat at 10 mg/kg, po measured upto 24 hrs by LC/MS/MS analysis; type: ADME, organism-based; details: in vivo
[30] = Cmax in male rat at 10 mg/kg, ip measured upto 24 hrs by LC/MS/MS analysis; type: ADME, organism-based; details: in vivo
[31] = Cmax in male rat at 5 mg/kg, iv measured upto 24 hrs by LC/MS/MS analysis; type: ADME, organism-based; details: in vivo
[32] = Tmax in male rat at 10 mg/kg, po measured upto 24 hrs by LC/MS/MS analysis; type: ADME, organism-based; details: in vivo
[33] = Tmax in male rat at 10 mg/kg, ip measured upto 24 hrs by LC/MS/MS analysis; type: ADME, organism-based; details: in vivo
[34] = Tmax in male rat at 5 mg/kg, iv measured upto 24 hrs by LC/MS/MS analysis; type: ADME, organism-based; details: in vivo
[35] = Oral bioavailability in male rat at 10 mg/kg measured upto 24 hrs by LC/MS/MS analysis; type: ADME, organism-based; details: in vivo
MDA-MB-231 [36] = test: In vivo antitumor activity against human MDA-MB-231 cells assessed as tumor growth inhibition at 15 mg/kg, ip once daily for 21 consecutive days relative to control; type: functional; details: MDA-MB-231, 504 h, time 21 day, read-out: TGI
MDA-MB-231 [37] = test: In vivo antitumor activity against human MDA-MB-231 cells assessed as tumor growth inhibition at 30 mg/kg, ip once daily for 21 consecutive days relative to control; type: functional; details: MDA-MB-231, 504 h, time 21 day, read-out: TGI
[38] = Toxicity in female BALB/c-nude mouse assessed as histological change in heart at 15 to 30 mg/kg, ip once daily for 21 consecutive days by H and E staining based IHC analysis; type: organism-based; details: in vivo, 504 h, dose 15-30 mg/kg, time 21 day
[39] = Toxicity in female BALB/c-nude mouse assessed as histological change in liver at 15 to 30 mg/kg, ip once daily for 21 consecutive days by H and E staining based IHC analysis; type: organism-based; details: in vivo, 504 h, dose 15-30 mg/kg, time 21 day
[40] = Toxicity in female BALB/c-nude mouse assessed as histological change in spleen at 15 to 30 mg/kg, ip once daily for 21 consecutive days by H and E staining based IHC analysis; type: organism-based; details: in vivo, 504 h, dose 15-30 mg/kg, time 21 day
[41] = Toxicity in female BALB/c-nude mouse assessed as histological change in lung at 15 to 30 mg/kg, ip once daily for 21 consecutive days by H and E staining based IHC analysis; type: organism-based; details: in vivo, 504 h, dose 15-30 mg/kg, time 21 day
[42] = Toxicity in female BALB/c-nude mouse assessed as histological change in kidney at 15 to 30 mg/kg, ip once daily for 21 consecutive days by H and E staining based IHC analysis; type: organism-based; details: in vivo, 504 h, dose 15-30 mg/kg, time 21 day

IC50 (MDA-MB-231 [1]): 2.05 µM
IC50 (MDA-MB-468 [2]): 7.54 µM
half-life [20]: 7.1 h
half-life [21]: 7.9 h
half-life [22]: 7.9 h
AUC(0-t) at 24 h [23]: 55.1 ng·h/mL
AUC(0-t) at 24 h [24]: 436 ng·h/mL
AUC(0-t) at 24 h [25]: 536 ng·h/mL
AUC(0-inf) [26]: 56.7 ng·h/mL
AUC(0-inf) [27]: 490 ng·h/mL
AUC(0-inf) [28]: 618 ng·h/mL
Cmax [29]: 67.8 ng/mL
Cmax [30]: 232 ng/mL
Cmax [31]: 348 ng/mL
Tmax [32]: 0.2 h
Tmax [33]: 6 min
Tmax [34]: 4.2 min
bioavailability [35]: 5.1%
Structure (SMILES): CC(C)C[C@@H](CO)N1CCc2c(oc3c2C(=O)C(=O)c2ccccc2-3)C1
IC50 at 48 h [3]: > 20 µM
IC50 (L02): > 20 µM
Activity (MDA-MB-231 [4]): 3.35%
Activity (MDA-MB-231 [5]): 3.48%
Activity (MDA-MB-231 [6]): 5.86%
Activity (MDA-MB-231 [7]): 29.24%
Activity (MDA-MB-468 [8]): 3.86%
Activity (MDA-MB-468 [9]): 4.6%
Activity (MDA-MB-468 [10]): 16.47%
Activity (MDA-MB-468 [11]): 19.37%
Activity (MDA-MB-231 [12]): 3.97%
Activity (MDA-MB-231 [13]): 25.51%
Activity (MDA-MB-231 [14]): 4.68%
Activity (MDA-MB-231 [15]): 13.57%
Activity (MDA-MB-468 [16]): 22.31%
Activity (MDA-MB-468 [17]): 17.13%
Activity (MDA-MB-468 [18]): 11.06%
Activity (MDA-MB-468 [19]): 15.38%
inhibition in vivo at 15 mg/kg (MDA-MB-231 [36]): 42.2%
inhibition in vivo at 30 mg/kg (MDA-MB-231 [37]): 60.4%
Activity [38]: Non-Toxic
Activity [39]: Non-Toxic
Activity [40]: Non-Toxic
Activity [41]: Non-Toxic
Activity [42]: Non-Toxic
